Experimental data from US7538073B2, “Pyrazoylcarboxanilides as fungicides” (Bayer CropScience AG, priority 2001, dated 2009).

system: Podosphaera leucotricha; test: Podosphaera test (apple)/protective; type: in vivo; settings: protective, application rate 100 g/ha, evaluation 10 days after inoculation
Description: (§1) To produce a suitable preparation of active compound, 1 part by weight of active compound is mixed with the stated amounts of solvent and emulsifier, and the concentrate is diluted with water to the desired concentration.
To test for protective activity, young plants are sprayed with the preparation of active compound at the stated application rate. After the spray coating has dried on, the plants are inoculated with an aqueous spore suspension of the apple mildew pathogen Podosphaera leucotricha. The plants are then placed in a greenhouse at about 23° C. and a relative atmospheric humidity of about 70%.
Evaluation is carried out 10 days after the inoculation. 0% means an efficacy which corresponds to that of the control, whereas an efficacy of 100% means that no infection is observed.

Row | Structure (SMILES) | Efficacy in % [%]
1 | C=C(c1ccccc1NC(=O)c1c(C)nn(C)c1F)C(C)C [drawing 97] | 90
2 | CCCC(C)c1ccccc1NC(=O)c1c(C)nn(C)c1F (centres unmarked) [drawing 98] | 100
3 | Cc1nn(C)c(F)c1C(=O)Nc1ccccc1C(C)C(C)C (centres unmarked) [drawing 99] | 100
4 | Cc1nn(C)c(F)c1C(=O)Nc1ccc(Cl)cc1C(C)C(C)C (centres unmarked) [drawing 100] | 100

system: Altemaria solani; test: Alternaria test (tomato)/protective; type: in vivo; settings: protective, application rate 750 g/ha, evaluation 7 days after inoculation
Description: as §1
To test for protective activity, young tomato plants are sprayed with the preparation of active compound at the stated application rate. 1 day after the treatment, the plants are inoculated with a spore suspension of Altemaria solani and then remain at 100% rel. humidity and 20° C. for 24 h. The plants then remain at 96% rel. atmospheric humidity and a temperature of 20° C.
Evaluation was carried out 7 days after the inoculation. 0% means an efficacy which corresponds to that of the control, whereas an efficacy of 100% means that no infection is observed.

Row | Structure (SMILES) | Efficacy in % [%]
5 | CCCC(C)c1ccccc1NC(=O)c1c(C)nn(C)c1F (centres unmarked) [drawing 101] | 95
6 | Cc1nn(C)c(F)c1C(=O)Nc1ccccc1C(C)C(C)C (centres unmarked) [drawing 102] | 95
7 | Cc1nn(C)c(F)c1C(=O)Nc1ccccc1C(C)CC(C)C (centres unmarked) [drawing 103] | 100

system: not listed separately; test: logP by HPLC, reversed-phase column (C 18), EEC Directive 79/831 Annex V.A8; type: physicochemical; settings: reversed-phase HPLC column (C 18), acidic range pH 2.3, 0.1% aqueous phosphoric acid/acetonitrile gradient, 43° C.
Description: The logP values given in the preparation examples and tables above are determined in accordance with EEC Directive 79/831 Annex V.A8 by HPLC (High Performance Liquid Chromatography) using a reversed-phase column (C 18). Temperature: 43° C. The determination is carried out in the acidic range at pH 2.3 using the mobile phases 0.1% aqueous phosphoric acid and acetonitrile; linear gradient from 10% acetonitrile to 90% acetonitrile. The calibration is carried out using unbranched alkan-2-ones (having 3 to 16 carbon atoms), with known logP values (determination of the logp values by the retention times using linear interpolation between two successive alkanones).

Row | Structure (SMILES) | chromatographic logP
8 | CCC(CC)c1ccccc1NC(=O)c1c(C)nn(C)c1F [Example 2, N-[2-(1-ethylpropyl)phenyl]-5-fluoro-1,3-dimethyl-1H-pyrazol-4-carboxamide] | 3.01
9 | Cc1nn(C)c(F)c1C(=O)Nc1ccccc1C=CC1CC1(F)F (centres unmarked) [Example 4, N-{2-[2-(2,2-difluorocyclopropyl)ethenyl]-phenyl}-5-fluoro-1,3-dimethyl-1H-pyrazol-4-carboxamide] | 2.59
10 | CCCC/C=C(\C)c1ccccc1NC(=O)c1c(C)nn(C)c1F [Example 5, 5-fluoro-1,3-dimethyl-N-[2-(1-methyl-1-hexenyl)phenyl]-1H-pyrazol-4-carboxamide] | 4.36
11 | C=C(c1ccccc1NC(=O)c1c(C)nn(C)c1F)C1CCCCC1 [Example I-9] | 4.36
12 | C=C(c1ccccc1NC(=O)c1c(C)nn(C)c1F)C(C)C [Example I-10] | 3.37
13 | C=C(c1cc(Cl)ccc1NC(=O)c1c(C)nn(C)c1F)C(C)C [Example I-16] | 4.11
14 | CCCC(C)c1ccccc1NC(=O)c1c(C)nn(C)c1F (centres unmarked) [Example I-17] | 3.01
15 | Cc1nn(C)c(F)c1C(=O)Nc1ccccc1C(C)C(C)C (centres unmarked) [Example I-18] | 2.92
16 | Cc1nn(C)c(F)c1C(=O)Nc1ccc(Cl)cc1C(C)C(C)C (centres unmarked) [Example I-19] | 3.43
17 | C=Cc1ccccc1NC(=O)c1c(C)nn(C)c1F [Example I-20] | 1.92
18 | Cc1nn(C)c(F)c1C(=O)Nc1ccccc1C(C)CC(C)C (centres unmarked) [Example I-21] | 3.26
19 | CCCCCC(C)c1ccccc1NC(=O)c1c(C)nn(C)c1F (centres unmarked) [Example I-22] | 3.83
20 | C=C(C)c1ccccc1NC(=O)c1c(C)nn(C)c1F [Example I-23] | 2.57
21 | C/C=C(\CC)c1ccccc1NC(=O)c1c(C)nn(C)c1F [Example I-24] | 3.45
22 | Cc1nn(C)c(F)c1C(=O)Nc1ccc(Cl)cc1C(C)CC(C)C (centres unmarked) [Example I-25] | 3.82
23 | CCC(C)CC(C)c1ccccc1NC(=O)c1c(C)nn(C)c1F (centres unmarked) [Example I-26] | 3.67
24 | Cc1nn(C)c(F)c1C(=O)Nc1ccccc1C(C)CC1CCCC1 (centres unmarked) [Example I-27] | 3.82
25 | CCC(CC(C)C)c1ccccc1NC(=O)c1c(C)nn(C)c1F (centres unmarked) [Example I-28] | 3.73
26 | CCC(C)C(CC)c1ccccc1NC(=O)c1c(C)nn(C)c1F (centres unmarked) [Example I-29] | 3.74
27 | CCCCCCCCC(C)c1ccccc1NC(=O)c1c(C)nn(C)c1F (centres unmarked) [Example I-30] | 5.29
28 | CCCCC(CC)c1ccccc1NC(=O)c1c(C)nn(C)c1F (centres unmarked) [Example I-31] | 3.85
29 | CCCC(CC)c1ccccc1NC(=O)c1c(C)nn(C)c1F (centres unmarked) [Example I-32] | 3.42
30 | CCC(c1ccccc1NC(=O)c1c(C)nn(C)c1F)C1CCCCC1 (centres unmarked) [Example I-33] | 4.34
31 | Cc1nn(C)c(F)c1C(=O)Nc1ccccc1C(C)CCCC(C)C (centres unmarked) [Example I-34] | 4.22
32 | CCCC(C)CC(C)c1ccccc1NC(=O)c1c(C)nn(C)c1F (centres unmarked) [Example I-35] | 4.11
33 | Cc1nn(C)c(F)c1C(=O)Nc1ccccc1C(C)CCC(C)C (centres unmarked) [Example I-36] | 3.76
34 | CC(C)=CC(C)CCC(C)c1ccccc1NC(=O)c1c(C)nn(C)c1F (centres unmarked) [Example I-37] | 4.49

Row | Structure (SMILES) | chromatographic logP
35 | CCC(c1ccccc1NC(=O)c1c(C)nn(C)c1F)C(C)C (centres unmarked) [Example I-38] | 3.37
36 | CCCCC(c1ccccc1NC(=O)c1c(C)nn(C)c1F)C(C)C (centres unmarked) [Example I-39] | 4.24
37 | CCC(C)C(C)c1ccccc1NC(=O)c1c(C)nn(C)c1F (centres unmarked) [Example I-40] | 3.28
38 | Cc1nn(C)c(F)c1C(=O)Nc1ccc(F)cc1C(C)CC(C)C (centres unmarked) [Example I-41] | 3.32
39 | Cc1nn(C)c(F)c1C(=O)Nc1ccccc1C(C)C1CCCCC1 (centres unmarked) [Example I-42] | 3.82
40 | CCCC(C)c1cc(F)ccc1NC(=O)c1c(C)nn(C)c1F (centres unmarked) [Example I-43] | 3.05
41 | Cc1nn(C)c(F)c1C(=O)Nc1c(F)cccc1C(C)CC(C)C (centres unmarked) [Example I-44] | 3.16
42 | Cc1nn(C)c(F)c1C(=O)Nc1ccccc1C(C)CC1CCCCC1 (centres unmarked) [Example I-45] | 4.2
43 | Cc1nn(C)c(F)c1C(=O)Nc1ccccc1C(C)(F)C(C)C (centres unmarked) [Example I-46] | 3.09
44 | Cc1nn(C)c(F)c1C(=O)Nc1ccccc1C(C)(F)CCCCCl (centres unmarked) [Example I-47] | 4.01
45 | CCC(C)C(C)(F)c1ccccc1NC(=O)c1c(C)nn(C)c1F (centres unmarked) [Example I-48] | 3.44
46 | Cc1nn(C)c(F)c1C(=O)Nc1ccccc1C(C)(F)CC(C)C (centres unmarked) [Example I-49] | 3.47
47 | CCCC(C)c1cccc(F)c1NC(=O)c1c(C)nn(C)c1F (centres unmarked) [Example I-50] | 2.86
48 | Cc1nn(C)c(F)c1C(=O)Nc1ccccc1C#CCC1CCCCC1 [Example I-52] | 5.08
49 | Cc1nn(C)c(F)c1C(=O)Nc1ccccc1C#CC(C)C [Example I-53] | 3.59
50 | Cc1nn(C)c(F)c1C(=O)Nc1c(C(C)CC(C)C)cccc1C(C)CC(C)C (centres unmarked) [Example I-54] | 4.9
51 | Cc1nn(C)c(F)c1C(=O)Nc1ccccc1I [Example V-1, 5-fluoro-N-(2-iodophenyl)-1,3-dimethyl-1H-pyrazol-4-carboxamide] | 2.44
52 | CCC(O)(CC)c1ccccc1NC(=O)c1c(C)nn(C)c1F [IV-1, N-[2-(1-ethyl-1-hydroxypropyl)phenyl]-5-fluoro-1,3-dimethyl-1H-pyrazol-4-carboxamide] | 2.47
53 | CCCC(C)(O)c1ccccc1NC(=O)c1c(C)nn(C)c1F (centres unmarked) [IV-2] | 2.4
54 | CCCCCC(C)(O)c1ccccc1NC(=O)c1c(C)nn(C)c1F (centres unmarked) [IV-3] | 3.13
55 | Cc1nn(C)c(F)c1C(=O)Nc1ccccc1C(C)(O)C1CCCCC1 (centres unmarked) [IV-4] | 3.1
56 | Cc1nn(C)c(F)c1C(=O)Nc1ccccc1C(C)(O)C(C)C (centres unmarked) [IV-5] | 2.41
57 | Cc1nn(C)c(F)c1C(=O)Nc1ccccc1C(C)(O)CC(C)C (centres unmarked) [IV-6] | 2.68
58 | Cc1nn(C)c(F)c1C(=O)Nc1ccc(Cl)cc1C(C)(O)C(C)C (centres unmarked) [IV-12] | 2.99
59 | CCC(O)(CC(C)C)c1ccccc1NC(=O)c1c(C)nn(C)c1F (centres unmarked) [IV-13] | 3.11
60 | CC(=O)c1ccccc1NC(=O)c1c(C)nn(C)c1F [VIII-1, N-(2-acetylphenyl)-5-fluoro-1,3-dimethyl-1H-pyrazol-4-carboxamide] | 2.15

system: Pyrenophora teres; test: Pyrenophora teres test (barley)/protective; type: in vivo; settings: protective, application rate 250 g/ha, evaluation 7 days after inoculation
Description: To produce a suitable preparation of active compound, 1 part by weight of active compound is mixed with the stated amount of solvent and emulsifier, and the concentrate is diluted with water to the desired concentration.
To test for protective activity, young plants are sprayed with the preparation of active compound at the stated application rate. After the spray coating has dried on, the plants are sprayed with a conidia suspension of Pyrenophora teres. The plants remain in an incubation cabin at 20° C. and 100% relative atmospheric humidity for 48 hours.
The plants are then placed in a greenhouse at a temperature of about 20° C. and a relative atmospheric humidity of about 80%.
Evaluation is carried out 7 days after the inoculation. 0% means an efficacy which corresponds to that of the control, whereas an efficacy of 100% means that no infection is observed.

Row | Structure (SMILES) | Efficacy in % [%]
61 | CCCC(C)c1ccccc1NC(=O)c1c(C)nn(C)c1F (centres unmarked) [drawing 95] | 100
62 | Cc1nn(C)c(F)c1C(=O)Nc1ccccc1C(C)C(C)C (centres unmarked) [drawing 96] | 100
